Experimental findings from US6875748B2, “Compositions and methods for in vivo delivery of polynucleotide-based therapeutics” (Vical Incorporated, priority 2000, dated 2005) are described below.

Values joined by “and” are separate entries in the source; they are usually repeats but may differ in a detail not shown here. Equal entries are not always repeated. Where two headings read alike, the source gives them in different places. Bounds are passed on as bounds.

In data set [1] the test system is mouse quadriceps muscle. Nature of the data set: Luciferase expression in mouse quadriceps muscle 7 days after i.m. injection of plasmid VR1223 in salt solutions. The data set is classed as in vivo. Set-up: lux: unit: ng/muscle. Particulars: for ng Lux per Muscle: 50 μg VR1223 in 50 μl of the solution; for ng luciferase per muscle / ng Lux/Muscle: 50 μg VR1223 in 50 μl; for lux: 7-day luciferase expression, VR1223; for ng lux/muscle: reproducibility; for luciferase expression compared with saline (words): 150 mM solutions.

Another data set deals with mouse lung. Kind of data set: Luciferase expression in mouse lung 3 days after intranasal instillation of VR1223 complexed with GAP-DLRIE/DOPE. The data set is classed as in vivo. Particulars: 132 μg VR1223 + GAP-DLRIE/DOPE, day 3.
The nature of data set [2]: Osmolarity of the salt solutions. The data set is classed as physicochemical. Conditions: for Osm: 150 mM unless otherwise indicated.
Another data set in a line: pH of the salt solutions. The data set is classed as physicochemical.
For data set [3], the system named is mouse quadriceps muscle. Kind of data set: β-galactosidase expression in mouse quadriceps muscle after i.m. injection of plasmid VR1418. Conditions: 10 μg VR1418, day 7.
Protocol: The luciferase content of the samples was calculated from Relative Light Units using a standard curve of purified firefly luciferase (Analytical Luminescence Laboratory, San Diego, Calif.; Cat. No. 2400), which was diluted in pooled extract from uninjected muscles to control for quenching. Luciferase values were expressed as ng luciferase per muscle. […] A standard curve, prepared in pooled extract from uninjected muscles, was included on each plate using the β-galactosidase enzyme standard included in the kit.
(§1) Muscle extracts were assayed for β-galactosidase and the serum was assayed for circulating levels of IFN-ω.
Quadriceps muscles were injected with 50 μl of each solution containing 10 μg of plasmid VR1418, and the muscles were tested for 7-day expression levels.
For data set [4], the system named is mouse quadriceps muscle. Kind of data set: Serum human IFN-ω after i.m. injection of plasmid VR4151. The data set is classed as in vivo. Conditions: 50 μg VR4151, day 7.
Protocol: as §1
In a further data set the test system is B16F10 tumor cells. Kind of data set: Anti-tumor effect of i.m. mIFN-α plasmid VR4111 in mice bearing subcutaneous B16F10 tumors. The data set is classed as in vivo, mouse.
The subject of data set [5] is mouse quadriceps muscle. Kind of data set: β-galactosidase-stained muscle fibers after i.m. injection of plasmid VR1412. The data set is classed as in vivo. Particulars: 50 μg VR1412, day 7, n=10.
Protocol: For whole muscle staining, quadriceps were fixed for 3 hours at room temperature in 2% paraformaldehyde in PBS, washed 3 times for 20 min each in PBS and incubated for 18 hours at 37° C. in a solution containing 2 mM MgCl2, 5 mM potassium ferricferrocyanide and 1 mg/ml 5-bromo-4-chloro-3-indoyl-β-D-galactosidase (available from Life Technologies, Inc. (LTI), Gaithersberg, Md.) in PBS. After incubation, the muscles were washed 3 times for 10 min each in 3% dimethyl sulfoxide in PBS and stored in PBS at 4° C. until analysis. […] Sections were collected on 1% gelatin coated glass slides, brought to room temperature and stained for 2 hours at 37° C. in the same reagent as for whole mounts above except that the beta-galactosidase reagent concentration was 200 μg/ml. The sections were then counterstained with Harris hematoxylin in acetic acid, rinsed in tap water, dehydrated and mounted in Permount (Fisher, Fair Lawn, N.J.).
Individual muscle cells were examined for β-galactosidase expression as follows.
Whole quadriceps muscle groups were harvested on day 7. Muscles were snap frozen in OTC medium (n=10 muscles for each group). 10 micron cross-sections were stained with x-gal (substrate for β-gal). Fibers expressing β-gal (stained blue) were counted.
Data set [6] deals with mouse quadriceps muscle. Kind of data set: Luciferase expression in mouse quadriceps muscle after i.m. injection of plasmid VR1255 with auxiliary agents. Conditions: 0.01% agent in saline versus saline alone, day 7.
Data set [7] deals with tibialis anterior muscles of nude mice. Kind of data set: Serum SEAP after injection of plasmid VR3301 into tibialis anterior muscles of nude mice. The data set is classed as in vivo, mouse.
Protocol: Briefly, tissues were rapidly collected and frozen, they were combined with and frozen into a lysis buffer, the tissue was then pulverized with a drill bit run in reverse direction, the resulting powder was thawed, and was extracted two times with extraction buffer. Nude mice were injected with VR3301 DNA bilaterally on three consecutive days for a total of 300 μg DNA per mouse.
Sera from nude mice injected with VR3301 were collected at various times post-injection. […] Samples were assayed in duplicate. Plates were sealed, incubated at 65° C. for 30 min and spun for 5 min at 4000 rpm at room temperature. […] The samples were analyzed using a Molecular Devices Opti Max plate reader (Sunnyvale, Calif.). The plate reader was pre-warmed to 37° C. and a standard kinetic program was used to assay the samples at a wavelength of 405 nm for 30 min.
The mice were monitored over time for blood levels of SEAP or proinsulin or for hematocrits. In the case of SEAP, plasmid DNA was injected into the tibialis anterior muscles, and nude mice were used to prevent an immune response to the foreign transgene product.
The mice were monitored for blood levels of SEAP at day 7 post-injection. Plasmid DNA was injected into the tibialis anterior muscles, and nude mice were used to prevent an immune response to the foreign transgene product.
In a further data set the test system is rectus femoris muscle. Particulars: group 4.
For data set [8], the system named is mouse quadriceps muscle. Nature of the data set: Hematocrit after i.m. injection of mouse erythropoietin plasmid (VR2901, VR2996). It is filed as in vivo.
Protocol: Hematocrits were measured by centrifugation of blood obtained from the retro-orbital cavity of mice. Blood samples were collected in 75 μl heparinized capillary tubes and analyzed using HemaSTAT II microhematocrit centrifuge (Separation Technology, Inc., Altamonte Springs, Fla.).
The mice were monitored over time for serum hematocrit levels, which correlate with the expression of erythropoeitin.
The mice were monitored over four weeks for serum hematocrit levels, which correlate with the expression of erythropoeitin.
The mice were monitored at days 0, 7, 14, 21, and 28 for serum hematocrit levels, which correlate with the expression of erythropoeitin.
The mice were monitored at days 7, 14, and 28 for serum hematocrit levels, which correlate with the expression of erythropoeitin. Control serum levels were measured before any injections.
Where [9] appears, read: salts at 150 mM, relative to saline, day 7.
Setting [10] is: 150 mM unless otherwise indicated.

Description for rectus femoris muscle: Two milliliters of DNA were delivered as 1-ml injections into each rectus femoris muscle. Following injection, cats were monitored at 7 day intervals for serum hematocrit levels, which correlate with the expression of erythropoeitin.

Take `O` [Double-distilled water, reference compound]: in the data set with mouse quadriceps muscle [1] (day 7), the “ng Lux per Muscle” value amounted to 4 ng per Muscle and the “ng luciferase per muscle” value is 4 ng luciferase per muscle. In addition, the “luciferase expression, times lower than saline” value in the data set on mouse quadriceps muscle [1] (VR1223, day 7) amounted to 25 times. In addition, the “Fold Saline” value with mouse quadriceps muscle [1] (luciferase expression relative to saline, day 7) came to 0.03 Fold. For the same molecule, the “luciferase expression in lung” value with mouse lung was 0.94 ng lux/lung.
On to `[Cl-].[Na+]` [Sodium Chloride, reference compound], for which the Osm came out at 215 mmol/kg in data set [2] (listed as 100 mM NaCl) and 310 mmol/kg in [2] (listed as 150 mM NaCl (Saline)). Besides, the osmolarity in data set [2] (listed as saline) was 310 mmol/kg and 308 mmol/kg. Further, the “ng Lux per Muscle” value is on record as 112 ng per Muscle in the data set on mouse quadriceps muscle [1] (day 7, listed as 100 mM Sodium Chloride) and 119 ng per Muscle with mouse quadriceps muscle [1] (day 7, listed as 150 mM Sodium Chloride (saline)). For the same molecule, the “ng luciferase per muscle” value with mouse quadriceps muscle [1] (day 7, listed as 100 mM NaCl) is 112 ng luciferase per muscle; in the data set on mouse quadriceps muscle [1] (day 7, listed as saline) it was 119 ng luciferase per muscle and 89 ng luciferase per muscle. Moreover, the “ng Lux/Muscle” value in the data set on mouse quadriceps muscle [1] (salts at 150 mM, day 7) amounted to 119 ng/Muscle. In the data set with mouse quadriceps muscle [1] (Example 4, run in parallel, day 7), the luciferase in muscle turned out to be 159 ng/muscle. Further, the lux with mouse quadriceps muscle [1] (Table III-A) came out at 119; with mouse quadriceps muscle [1] (Table III-A, listed as 100 mM NaCl), 112; in the data set with mouse quadriceps muscle [1] (Table III-A, listed as 150 mM NaCl (Saline)), 119; in the data set with mouse quadriceps muscle [1] (Table III-B, listed as 100 mM NaCl), 112; in the data set on mouse quadriceps muscle [1] (Table III-B, listed as 150 mM NaCl (Saline)), 119. Further, in the data set with mouse quadriceps muscle [1] (average of all 9 experiments), the ng luciferase/muscle turned out to be 120 ng luciferase/muscle. The “Fold Saline” value in the data set on mouse quadriceps muscle [1] (luciferase expression relative to saline, day 7, listed as 100 mM Sodium Chloride) was determined as 0.9 Fold; with mouse quadriceps muscle [1] (luciferase expression relative to saline, day 7, listed as 150 mM Sodium Chloride (saline)), 1.0 Fold; in the data set on mouse quadriceps muscle [1] (setting [9]) it was 1.0 Fold. In addition, the ng lux/muscle was 49 ng lux/muscle in the data set with mouse quadriceps muscle [1] (Exp. #1) and 156 ng lux/muscle in the data set with mouse quadriceps muscle [1] (Exp. #9). The pH in “pH of the salt solutions” and in the data set “pH of the salt solutions” (setting [10]) was 5.5 throughout. This molecule also had a β-galactosidase in muscle in the data set with mouse quadriceps muscle [3] of 3.0 ng/muscle. Moreover, in the data set with mouse quadriceps muscle [4], the “serum IFN-ω levels” value is listed as 0.14 ng ml serum. This molecule also showed a tumor volume in the data set with B16F10 tumor cells (27 days, VR4111) of 2069 mm^3. Moreover, the “survival versus blank DNA in saline” value in the data set on B16F10 tumor cells (p<0.007, Kaplan-Meier) is “statistically significant survival difference”. For the same molecule, the mice surviving in the data set with B16F10 tumor cells (to day 38, VR4111) is recorded as 2 out of 10. In addition, the β-galactosidase-positive myofiber cells in the data set with mouse quadriceps muscle [5] is on record as 108+/−21 myofiber cells/muscle section. In the data set on mouse lung, the “luciferase expression in lung” value worked out at 0.14 ng lux/lung.
As to `CC(=O)C(=O)[O-].[Na+]` [Sodium Pyruvate], the Osm in data set [2] is recorded as 271 mmol/kg. The “ng Lux/Muscle” value with mouse quadriceps muscle [1] (salts at 150 mM, day 7) was determined as 364 ng/Muscle. For the same molecule, the “luciferase expression compared with saline (words)” value with mouse quadriceps muscle [1] (VR1223, day 7) is listed as “increased luciferase expression compared with saline”. In addition, the lux with mouse quadriceps muscle [1] (Table III-A) and in the data set on mouse quadriceps muscle [1] (Table III-B) was 364 throughout. Also, the “Fold Saline” value in the data set with mouse quadriceps muscle [1] (setting [9]) was found to be 3.1 Fold. For the same molecule, the pH in “pH of the salt solutions” (setting [10]) turned out to be 6.0.
As to `O=S(=O)([O-])[O-].[Na+].[Na+]` [Sodium Sulfate], the Osm in data set [2] is recorded as 349 mmol/kg. Also, the “ng Lux/Muscle” value in the data set with mouse quadriceps muscle [1] (salts at 150 mM, day 7) worked out at 312 ng/Muscle. The “luciferase expression compared with saline (words)” value in the data set on mouse quadriceps muscle [1] (VR1223, day 7) is “increased luciferase expression compared with saline”. For the same molecule, the lux with mouse quadriceps muscle [1] (Table III-A) and with mouse quadriceps muscle [1] (Table III-B) was 312 in each case. In addition, in the data set with mouse quadriceps muscle [1] (VR1223, day 7), the “luciferase expression, fold over saline” value came to 2.6 fold. Besides, in the data set with mouse quadriceps muscle [1] (setting [9]), the “Fold Saline” value is on record as 2.6 Fold. Besides, the pH in “pH of the salt solutions” and in “pH of the salt solutions” (setting [10]) was 5.5 each time.
Take `O=P([O-])([O-])O.[Na+].[Na+]` [Sodium dibasic, Na2HPO4]: in data set [2], the Osm amounted to 357 mmol/kg. For the same molecule, in the data set on mouse quadriceps muscle [1] (salts at 150 mM, day 7), the “ng Lux/Muscle” value is given as 282 ng/Muscle. Further, the “luciferase expression compared with saline (words)” value with mouse quadriceps muscle [1] (VR1223, day 7) is listed as “only slightly stimulated over saline”. The lux in the data set on mouse quadriceps muscle [1] (Table III-A) and with mouse quadriceps muscle [1] (Table III-B) was 282 each time. The “Fold Saline” value in the data set on mouse quadriceps muscle [1] (setting [9]) was determined as 2.4 Fold. In addition, the pH in “pH of the salt solutions” (setting [10]) worked out at 8.0.
`O=P([O-])(O)O.[Na+]` [Sodium monobasic, NaH2PO4]: the Osm in data set [2] turned out to be 277 mmol/kg. Further, the “ng Lux/Muscle” value with mouse quadriceps muscle [1] (salts at 150 mM, day 7) came to 198 ng/Muscle. For the same molecule, in the data set with mouse quadriceps muscle [1] (VR1223, day 7), the “luciferase expression compared with saline (words)” value is “only slightly stimulated over saline”. In addition, the lux in the data set with mouse quadriceps muscle [1] (Table III-A) and with mouse quadriceps muscle [1] (Table III-B) was 198 in each case. For the same molecule, the “Fold Saline” value in the data set on mouse quadriceps muscle [1] (setting [9]) is given as 1.7 Fold. The pH in the data set “pH of the salt solutions” (setting [10]) was 5.5.
Consider `[Cl-].[Cl-].[Zn+2]` [Zinc Chloride], for which, in [2], the Osm was 358 mmol/kg. Moreover, in the data set on mouse quadriceps muscle [1] (salts at 150 mM, day 7), the “ng Lux/Muscle” value was determined as 0.1 ng/Muscle. For the same molecule, the “luciferase expression compared with saline (words)” value in the data set on mouse quadriceps muscle [1] (VR1223, day 7) is “no ability to enhance”. Besides, the lux in the data set with mouse quadriceps muscle [1] (Table III-A) and in the data set with mouse quadriceps muscle [1] (Table III-B) was 0.1 each time. Moreover, in the data set with mouse quadriceps muscle [1] (setting [9]), the “Fold Saline” value is less than 0.1 Fold. In addition, the pH in the data set “pH of the salt solutions” (setting [10]) came out at 5.0.
Take Calcium Phosphate: the Osm in [2] amounted to 36 mmol/kg. For the same molecule, the “ng Lux/Muscle” value in the data set on mouse quadriceps muscle [1] (salts at 150 mM, day 7) is 12 ng/Muscle. In addition, the “luciferase expression compared with saline (words)” value in the data set with mouse quadriceps muscle [1] (VR1223, day 7) is “no ability to enhance”. For the same molecule, the lux in the data set with mouse quadriceps muscle [1] (Table III-A) and in the data set with mouse quadriceps muscle [1] (Table III-B) was 12 throughout. Moreover, the “Fold Saline” value in the data set on mouse quadriceps muscle [1] (setting [9]) turned out to be 0.1 Fold. For the same molecule, the pH in “pH of the salt solutions” (setting [10]) worked out at 6.0.
For the molecule “octyl phenol ethylene oxide condensate with about 9-10 ethylene oxide units [Triton X-100]”, the “increase of luciferase expression in 154 mM sodium chloride” value in the data set with mouse quadriceps muscle [6] is “six-fold”. In [7] (day 7), the “SEAP expression with 100 μg DNA plus agent versus 300 μg DNA in 150 mM sodium phosphate alone” value is given as “nearly equivalent” and the “SEAP expression, fold compared with sodium phosphate alone” value amounted to 1.7 fold. Further, the “SEAP expression, fold compared with 150 mM sodium phosphate alone” value in [7] (day 35) is on record as 2 fold. For the same molecule, in the data set with β-galactosidase (10 μg VR1412, four weeks), the “mice with anti-β-galactosidase antibody” value is given as “three of the five”. In the data set on β-galactosidase (10 μg VR1412, ten weeks), the “mice with anti-β-galactosidase antibody” value is “four of the five”. The “period of elevated hematocrit” value in the data set on rectus femoris muscle is greater than 40 days.
With “octylphenoxypolyethoxyethanol [NONIDET NP-40]”, the “increase of luciferase expression in 154 mM sodium chloride” value in the data set on mouse quadriceps muscle [6] is “three-fold”. The “hematocrit versus 150 mM sodium phosphate alone” value with mouse quadriceps muscle [8] (5 μg VR2901, 0.01% agent, all time points) is “higher hematocrit levels”. Moreover, in the data set on mouse quadriceps muscle [8] (5 μg VR2901, after day 14), the rise in hematocrit is 10%.
